Results from US12677850B2, “Stevia blends containing rebaudioside B” (Tate & Lyle Solutions USA LLC, priority 2011, dated 2026).

Tests used:
[1] = previous reports; cited from earlier work
[2] = type: physicochemical; details: pH 3
Method: To determine the solubility of rebaudioside A and rebaudioside B in certain solutions, four stock solutions were prepared. A 10× concentrated citric acid/sodium citrate pH 3 stock buffer solution was prepared by dissolving 0.9 g anhydrous citric acid and 0.26 g of sodium citrate dihydrate in water to make 100 mL of buffer (0.047 M citric acid+0.0088 M sodium citrate). A 2500 ppm (nominal) solution of rebaudioside A was prepared by dissolving 0.125 g of GLG RA 97 to make 50 mL of solution. A 2500 ppm (nominal) solution of stevioside was prepared by dissolving 0.125 g of GLG STV 97 to make 50 mL of solution. A 1000 ppm (nominal) solution of rebaudioside B was prepared by diluting 56 mL of a solution assayed at 1790 ppm to make 100 mL of solution.
These solutions were mixed as 1 mL total amounts by micropipetting the volumes, in microliters, into 1.5 mL microcentrifuge tubes As shown in Table 14.
After standing for […] (~100 hours), the tubes were spun in a bench top microcentrifuge to pelletize the precipitate. The clear supernate was sampled into vials and assayed for glycosides using a reverse phase high performance liquid chromatograph (HPLC) gradient method with UV detection (Waters 2695 Separations Module equipped with a Waters 2487 Dual X Absorbance Detector or equivalent instrumentation) that is summarized in Table 15. The HPLC conditions were as follows:
The supernatant data collected from the HPLC were processed using DESIGN EXPERT 8 software. Briefly, the data were entered into the program as “factor” data as a 2 factor-5 level general factorial design as the nominal data which were then converted to numerical data and replaced by the actual HPLC results. The software then selected a model that predicted the concentration (solubility) of rebaudioside B as a function of the concentration of rebaudioside A and stevioside in the supernatant. The software also calculated a number of statistical factors that indicated the significance of the model parameters.

solubility [2]: limited
Substance: rebaudioside B
sweetness relative to rebaudioside A [1]: one-half to two-thirds
